These are literature values, as cited in patent US8778301B2, “Gamma-hydroxybutyrate compositions containing carbohydrate, lipid or amino acid carriers” (Orphan Medical, Inc., priority 2000, dated 2014).

Assay in series [1]: not given
The source holds these as a separate data set.

The conditions of series [2]: in vivo.
For series [3] the following is noted: patients.
For series [4] the following is noted: heroin and methadone withdrawal.
For series [5] the following is noted: intravenous administration, patients.
For series [6] the following is noted: patients. The source holds these as a separate data set.
Assay in series [7]: not given
The source holds these as a separate data set.

The conditions of series [8]: healthy volunteers, 12.5, 25 and 50 mg/kg.

Where a name gives a salt, the structure may show the parent alone.

As to `O=C(O)CCCO` [GHB monosodium salt, sodium oxybate], the “duration of normal sequence of NREM and REM sleep” value (healthy human volunteers, low doses (about 30 mg/kg)) was 2 to 3 h. Under “low doses, over time”, the “tolerance to sleep-inducing effects” value is “without the development of tolerance”.

Regarding `O=C(O)CCCO` [GHB, Gamma-hydroxybutyric acid], in series [1] (clinical trials), the continuity of sleep entry is “improves the continuity of sleep” and the delta sleep result was “increases delta sleep”. Moreover, in series [1] (human, in vivo), the REM latency entry is reported as “decreases REM latency”; the sleep apnea entry was “reduces sleep apnea”; the “total sleep time and REM sleep” value was “increases total sleep time and REM sleep”. For the same compound, the “signs and symptoms of narcolepsy (daytime sleepiness, cataplexy, sleep paralysis, hypnagogic hallucinations)” value in series [2] is “substantially reduces the signs and symptoms of narcolepsy”. Besides, the “alcohol craving, daily drinks, alcohol withdrawal symptoms” value in series [3] is “reduce alcohol craving, the number of daily drinks consumed, and the symptoms of alcohol withdrawal”. Further, in [4], the “symptoms of opiate withdrawal” value is “decrease the symptoms of opiate withdrawal”. Further, in series [5], the intracranial pressure result was “reduce intracranial pressure”. In series [6], the growth hormone levels entry is “increase growth hormone levels”. Further, in [7] (long-term treatment of narcolepsy), the “organ or other toxicities in periodic clinical laboratory tests” value was “have not indicated organ or other toxicities”. The development of tolerance entry in [7] (patients treated for many years) was “without development of tolerance”. Besides, the “oral absorption and elimination processes” value in series [8] is reported as “capacity-limited”.
